The values that follow come from patent US5916919A, “Retrovirus protease inhibitors” (priority 1997, dated 1999).

For data set [1] the following is noted: HIV positive, ARC and AIDS individuals; cited from earlier work.
The target of the next data set is T1, HIV-1 protease (Human immunodeficiency virus type 1 group M subtype B, UniProt P04585).
T1 construct: Recombinant HIV-1 protease was prepared from the expression vector, PGEX-PR 107; made in house
Nature of the data set: HPLC assay of proteolytic activity of recombinant HIV-1 protease (SQNYPIV substrate). The data set is classed as biochemical. The following applies: for Inhibition (inhibitory activity of compounds against HIV-1 protease) / inhibition at 17.9 µg/mL: 17.9 μg/ml, HPLC assay; for inhibition at 17.9 µg/mL: read-out: Inhibition (inhibitory activity of compounds against HIV-1 protease); for anti-HIV-1 protease activity (in words): 17.9 μg/ml (tested concentration). As to the method:
Recombinant HIV-1 protease was prepared from the expression vector, PGEX-PR 107, in E. coli DII5a and was purified according to the method established in Dr. Wan's laboratory.
The proteolytic activity of HIV-1 PR was measured by Dr. Wan's group at the Biochemistry Department using the synthetic heptapeptide Ser-Gln-Asn-Tyr-Pro-Ile-Val (SQNYPIV), corresponding to the p24-p17 cleavage site in the natural gag precursor, as substrate. The products of cleavage were analyzed by reversed-phase high-performance liquid chromatography (RP-HPLC, Ultrasphere ODS, 5μ, 4.6 mm×15 cm, Beckman, Calif., USA) with a 7-33% acetonitrile gradient in 0.1% trifluoroacetic acid (TFA). Product peak areas were integrated by a data system (Chromatopac C-R3A, Shimadzu, Japan) and compared with the standard peptide SQNY, which is expected to be generated from heptapeptide SQNYPIV after HIV-1 protease digestion. The extinction coefficient of the peptide SQNY was used to estimate the rate of proteolysis of the heptapeptide substrate. The assay was performed in a volume of 140 μl containing 90 pmole of substrate, 2 U of HIV-1 protease and compound solution in 0.1 M NaOAc buffer, pH 5.5, with 1 M (NH4)2 SO4, at 37° C. The reaction which proceeded for 2 h was terminated by the addition of 20 μl of aqueous 10% trifluoroacetic acid. The supernatant obtained by centrifuging at 12,000 rpm for 3 min was then analyzed by the hplc method. The unit of enzyme activity was defined as the amount of enzyme which yields 1 nmol of tetrapeptide SQNY under the above conditions in 1 min.
The proteolytic activity of HIV-1 protease inhibited by the compound was calculated as the activity of the control subtracting that of the sample, and then divided by itself.

The test system of data set [2] is HIV. As to conditions: cited from earlier work.
Data set [3] concerns HIV. As to conditions: cited from earlier work. This is another data set of the same source.
For data set [4], the system named is HIV. As to conditions: cited from earlier work. The source holds these as a separate data set.
A further data set relates to HSV. As to conditions: cited from earlier work.
Data set [5] has as its system HIV-specific antigen expression. As to conditions: MT-4 cells; cited from earlier work.
Data set [6] concerns HIV. As to conditions: MT-4 cells, cited from earlier work.
The subject of data set [7] is HIV-infected Molt-4 clone No. 8 cells. The following applies: cited from earlier work.
The subject of data set [8] is HIV. As to conditions: MT-4 cells; cited from earlier work.

Values after ≈ are worked out from the molar mass of the structure shown. Read-outs that look alike come from different tables or passages of the source.

For `Cc1cn([C@H]2C[C@H](N=[N+]=[N-])[C@@H](CO)O2)c(=O)[nH]c1=O` [AZT, 3'-azido-3'-deoxythymidine], in data set [1], the toxicity result was “frequently toxic, causing bone marrow suppression resulting in anemia leucopenia and thrombocytopenia”. `C[C@@H]1CC[C@]2(C(=O)O)CC[C@]3(C)C(=CC[C@@H]4[C@@]5(C)C[C@@H](O)C(=O)C(C)(C)[C@@H]5CC[C@]43C)[C@@H]2[C@]1(C)O` [Compound 1, 2α,19α-Dihydroxy-3-oxo-12-ursen-28-oic acid]: on HIV-1 protease, the “Inhibition (inhibitory activity of compounds against HIV-1 protease)” value is 72.19% and the inhibition – broadly, the percentage by which the read-out fell short of the control – at 17.9 µg/mL is 72%.

On to `C[C@H]1[C@H](C)CC[C@]2(C(=O)O)CC[C@]3(C)C(=CC[C@@H]4[C@@]5(C)CC[C@H](O)C(C)(C)[C@@H]5CC[C@]43C)[C@H]12` [Compound 2, 3β-Hydroxy-12-ursen-28-oic acid], for which, at HIV-1 protease, the “Inhibition (inhibitory activity of compounds against HIV-1 protease)” value stood at 85.07% and the inhibition at 17.9 µg/mL is 85%. For `C[C@@H]1CC[C@]2(C(=O)O)CC[C@]3(C)C(=CC[C@@H]4[C@@]5(C)CC[C@@H](O)C(C)(C)[C@@H]5CC[C@]43C)[C@@H]2[C@]1(C)O` [Compound 3, 3α,19α-Dihydroxy-12-ursen-28-oic acid], in that order: 42.18% and 42%. Consider `CC1(C)CC[C@]2(C(=O)O)CC[C@]3(C)C(=CC[C@@H]4[C@@]5(C)C[C@@H](O)[C@H](O)C(C)(C)[C@@H]5CC[C@]43C)[C@@H]2C1` [Compound 4, 2α,3β-Dihydroxy-12-oleanen-28-oic acid], for which, on HIV-1 protease, the “anti-HIV-1 protease activity (in words)” value is recorded as “most active” and the inhibition at 17.9 µg/mL stood at 100%. `C[C@@H]1CC[C@]2(C(=O)O)CC[C@]3(C)C(=CC[C@@H]4[C@@]5(C)C[C@@H](O)[C@@H](O)C(C)(C)[C@@H]5CC[C@]43C)[C@@H]2[C@]1(C)O` [Compound 5, 2α,3α,19α-Trihydroxy-12-ursen-28-oic acid]: at HIV-1 protease, the “anti-HIV-1 protease activity (in words)” value is recorded as “did not show activity”. For the compound `C[C@@H]1CC[C@]2(C(=O)O)CC[C@]3(C)C(=CC[C@@H]4[C@@]5(C)C[C@@H](O)[C@H](O)C(C)(C)[C@@H]5CC[C@]43C)[C@@H]2[C@]1(C)O` [Compound 6, 2α,3β,19α-Trihydroxy-12-ursen-28-oic acid], on HIV-1 protease, the “Inhibition (inhibitory activity of compounds against HIV-1 protease)” value was 49.47% and the inhibition at 17.9 µg/mL came to 49%.

As to `COc1ccc(-c2cc(=O)c3c(O)cc(O[C@@H]4O[C@H](CO)[C@H](O)[C@H](O)[C@H]4O)cc3o2)cc1` [acacetin-7-O-β-D-galactopyranoside], in the data set with HIV [2], the EC50 – broadly, the concentration giving half of the maximal effect – is 8 µM; the IC50 was 37 µM; the “anti-HIV activity (in words)” value is “significant anti-HIV activity”; the therapeutic index is recorded as 5. In the case of `COc1c(O)cc2c(c1O)[C@@H]1O[C@H](CO)[C@@H](O)[C@H](O)[C@H]1OC2=O` [bergenin], the “anti-HIV activity (in words)” value in the data set with HIV [3] (in vitro) is given as “moderate anti-HIV activity”.

Take `C=C(C)[C@@H]1CC[C@]2(C(=O)O)CC[C@]3(C)[C@H](CC[C@@H]4[C@@]5(C)CC[C@H](O)C(C)(C)[C@@H]5CC[C@]43C)[C@@H]12` [betulinic acid]: the “inhibition of HIV replication (in words)” value in the data set with HIV [4] was “potent inhibitors of HIV replication”. As to `CC(C)[C@@H]1CC[C@]2(C(=O)O)CC[C@]3(C)C(CCC4[C@@]5(C)CC[C@H](O)C(C)(C)C5CC[C@]43C)C12` (stereo partly shown) [dihydrobetulinic acid], in the data set with HIV [4], the “inhibition of HIV replication (in words)” value is “potent inhibitors of HIV replication”. On to `O=Cc1cc(O)c(O)c(O)c1` [gallic aldehyde], for which the “anti-HSV activity (in words)” value in the data set with HSV is “strong anti-HSV activity”. For `CC1(C)[C@@H](O[C@H]2O[C@H](C(=O)O)[C@@H](O)[C@H](O)[C@H]2O[C@@H]2O[C@H](C(=O)O)[C@@H](O)[C@H](O)[C@H]2O)CC[C@]2(C)[C@H]3C(=O)C=C4[C@@H]5C[C@@](C)(C(=O)O)CC[C@]5(C)CC[C@@]4(C)[C@]3(C)CC[C@@H]12` [glycyrrhizin], the “concentration at which HIV-specific antigen expression was inhibited” value in data set [5] is on record as 0.6 mM. Also, in the data set on HIV [6], the “concentration at which HIV-induced plaque formation was inhibited” value was 0.6 mM. Further, the IC50 with HIV [6] (read-out: 50% inhibitory dose, HIV-induced plaque formation) was 150 µM. In addition, the “inhibition of giant cell formation” value in data set [7] is “inhibited giant cell formation”. Also, in the data set with HIV [8], the “concentration at which cytopathic effect of HIV was inhibited” value is 0.3 mM. In the case of `O=C1O[C@@H]2[C@@H](O)[C@H](O)[C@@H](CO)O[C@H]2c2c1cc(O)c(O)c2O` [norbergenin], the selectivity index entry in the data set with HIV [3] (IC50/EC50 basis not stated) was “above 25”. The EC50 with HIV [3] (in vitro anti-HIV) was 20 µg/mL (≈ 63.6 µM). For the same compound, in the data set on HIV [3] (in vitro), the IC50 entry is “over 500 μg/ml” and the “anti-HIV activity (in words)” value was “moderate anti-HIV activity”. On to `CC(=O)[C@@H]1CC[C@]2(C(=O)O)CC[C@]3(C)[C@H](CC[C@@H]4[C@@]5(C)CC[C@H](O)C(C)(C)[C@@H]5CC[C@]43C)[C@@H]12` [platanic acid], for which the “inhibition of HIV replication (in words)” value in the data set with HIV [4] is listed as “potent inhibitors of HIV replication”.

geponin: the “anti-HSV activity (in words)” value with HSV is recorded as “strong anti-HSV activity”.
